# Source: US6809091B1, “Substances capable of inducing apoptosis” (Takara Bio Inc., priority 1998, dated 2004)
# Key:
# human IL-10 = assay: cytokine production in DSEK cells, ELISA; assay type: cell-based; conditions: DSEK cell incubation, supernatant every 24 hours
# Method: (§1) Now, in the DSEK cell incubation, 150 μl/well of the supernatant liquid of the medium were recovered every 24 hours and influence of 4-hydroxy-2-cyclopenten-1-one or 4,5-dihydroxy-2-pentenal on the production of cytokines (human TGF-β, human FGF-β, human IL-1α and human IL-10) was measured using an ELISA-kit specific to each of the cytokine (the kit manufactured by INTERGEN or human FGF-β and human IL-10; and the kit manufactured by Promega for human IL-1α and human TGF-β).
# [1] = tested on: NO production in RAW 264.7 cells; assay: inhibition of NO production, NO2− by Griess reagent; assay type: cell-based
# Method: (1) RAW 264.7 cells (ATCC TIB 71) were suspended to an extent of 3×10^5 cells/ml in an Eagle's medium modified by Dulbecco (manufactured by BioWhittaker; 12-917F) containing 10% fetal bovine serum (manufactured by Gibco), no Phenol Red and 2 mM of L-glutamine (manufactured by Lifetech Oriental; 25030-149) and each 500 μl of the suspension were added to each well of a 48-well microtiter plate and incubated at 37° C. for 12 hours in the presence of 5% carbon dioxide gas. To the well were added 10 μl of a 50 μg/ml lipopolysaccharide (LPS; manufactured by Sigma, L-2012) or each 10 μl of a 2.5 μg/ml of LPS and a 500 units/ml of interferon γ (manufactured by Genzyme; code MG-IFN), then 10 μl of a 1000, 500 or 250 μM aqueous solution of 2-(trans-3,4-dihydroxy-1-butenyl)-4-(trans-2-formylvinyl)-1,3-dioxolane were added, the mixture was incubated for 18 hours more and the NO2^− concentration generated by oxidation of NO in the medium was measured. Incidentally, a section to which LPS and interferon γ were not added and a section to which 2-(trans-3,4-dihydroxy-1-butenyl)-4-(trans-2-formylvinyl)-1,3-dioxolane was not added were prepared as controls.
# After the above incubation, 100 μl of a 4% Griess reagent (manufactured by Sigma; G4410) were added to 100 μl of the medium, the mixture was allowed to stand at room temperature for 15 minutes and the absorbance at 490 nm was measured. From a calibration curve prepared by NaNO2 of known concentrations dissolved in the above medium, the NO2^− concentration in the medium was calculated. All measurements were conducted in three series.
# HL-60 cells = assay: measurement of apoptosis cells using FACScan; assay type: cell-based, human; conditions: HL-60, 24 hours and 48 hours
# Method: (2) HL-60 cells which were incubated on an RPMI 1640 medium containing 10% of fetal bovine serum processed at 56° C. for 30 minutes were suspended in an RPMI 1640 medium to make 2.5×10^5 cells/5 ml. […]
# human TGF-β = assay: cytokine production in DSEK cells, ELISA; assay type: cell-based; conditions: DSEK cell incubation, supernatant every 24 hours
# Method: as §1
smiles,measurement,setting,value
"O=CC=CC(O)CO (single isomer, unassigned) [4,5-dihydroxy-2-pentenal, trans-4,5-dihydroxy-2-pentenal]",production of human IL-10,human IL-10,activated
"O=C/C=C/C1COC(/C=C/C(O)CO)O1 (stereo not drawn) [2-(trans-3,4-dihydroxy-1-butenyl)-4-(trans-2-formylvinyl)-1,3-dioxolane]",induction of NO production by LPS,[1]; 18 hours,inhibited
same,induction of NO production by LPS and interferon γ,[1]; 18 hours,inhibited
same,inhibition at 10 µM,"[1]; Mus musculus, RAW264.7, final concentration of 10 μM, read-out: inhibiting activity for NO production",~50%
Nc1nc2c(ncn2C2C=CC(=O)C2)c(=O)[nH]1 (stereo not drawn) [4-(9-guaninyl)-2-cyclopenten-1-one],final concentration at which apoptosis cells were confirmed,HL-60 cells,≥ 20 µM
same,production of human TGF-β,human TGF-β,inhibited
